The target in one test is human BB1 receptor (Homo sapiens, UniProt P28336). Kind of test: Intracellular inositol monophosphate (IP-One HTRF) assay, HEK-293 cells overexpressing BB1 receptor. It is filed as cell-based. The settings on record: BB1R HEK-293. As for the experimental part: (§1) Additionally, reference compounds BIM23042 and PD176252 (both from Tocris) antagonists of BB1 and BB2 receptors were used in a concentration of 10 μM (Figure 7).
(§2) The human BB1 receptor NM_002511.3 (GenScript) and BB2 receptor NM_002091 (cDNA Resource Center) sequences in pcDNA 3.1 + plasmids were introduced into the host cell by lipofection (Lipofectamine Reagent 3000, Thermo Fisher Scientific). Then, the transfected cells were selected with G-418 antibiotic at a dose of 500 μg/mL. Cells were grown under standard cell culture conditions (37 °C, 5% CO2) in DMEM supplemented with 10% FBS and Glutamax.
(§3) Receptor activity was determined by measuring the intracellular inositol monophosphate concentration using a homogeneous time-resolved fluorescence IP-one kit from Cis-bio, according to the manual. Briefly, 24 h before assay, cells were grown in an FBS-free DMEM medium. Then, the cells were scraped and centrifuged. The cell pellet was suspended in Hanks-HEPES (130 mM NaCl, 5.4 mM KCl, 1.8 mM CaCl2, 0.8 mM MgSO4, 0.9 mM NaH2PO4, 20 mM HEPES, LiCl 50 mM, and 3.25 mM glucose; pH 7.4). […] The cell suspension was then mixed with 5 μL of the IP1-acceptor conjugate and 5 μL of the anti-IP1-donor conjugate. After 1 h incubation at RT, fluorescence was read at 620 and 665 nm (Tecan; Infinite M1000). Results were calculated as the ratio (665 nm/620 nm) multiplied by 10^4. The signal was inversely proportional to the concentration of IP1 in the samples. Each sample was prepared in triplicate. Data were analyzed using GraphPad Prism version 5.04 for Windows (GraphPad software).
For orientation: Time-resolved FRET reads energy transfer from a long-lived donor to a nearby acceptor.

A further test concerns the target human BB2 receptor (Homo sapiens, UniProt P30550). Kind of test: Intracellular inositol monophosphate (IP-One HTRF) assay, HEK-293 cells overexpressing BB2 receptor. It is filed as cell-based. The settings on record: BB2R HEK-293. On the procedure: as §1, §2, §3

Where no end group is shown, it is not given here.

human BB2 receptor, sequence (P30550 whole entry): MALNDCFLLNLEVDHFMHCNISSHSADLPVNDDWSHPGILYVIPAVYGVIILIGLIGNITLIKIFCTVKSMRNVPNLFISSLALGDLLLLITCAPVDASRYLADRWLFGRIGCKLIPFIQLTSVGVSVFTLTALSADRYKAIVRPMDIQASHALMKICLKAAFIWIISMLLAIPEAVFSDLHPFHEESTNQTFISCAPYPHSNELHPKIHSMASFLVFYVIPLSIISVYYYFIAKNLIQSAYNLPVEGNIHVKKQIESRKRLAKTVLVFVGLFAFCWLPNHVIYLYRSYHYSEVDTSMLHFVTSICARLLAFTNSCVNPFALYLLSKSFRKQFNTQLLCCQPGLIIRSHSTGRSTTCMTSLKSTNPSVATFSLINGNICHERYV
human BB1 receptor, sequence (P28336 whole entry): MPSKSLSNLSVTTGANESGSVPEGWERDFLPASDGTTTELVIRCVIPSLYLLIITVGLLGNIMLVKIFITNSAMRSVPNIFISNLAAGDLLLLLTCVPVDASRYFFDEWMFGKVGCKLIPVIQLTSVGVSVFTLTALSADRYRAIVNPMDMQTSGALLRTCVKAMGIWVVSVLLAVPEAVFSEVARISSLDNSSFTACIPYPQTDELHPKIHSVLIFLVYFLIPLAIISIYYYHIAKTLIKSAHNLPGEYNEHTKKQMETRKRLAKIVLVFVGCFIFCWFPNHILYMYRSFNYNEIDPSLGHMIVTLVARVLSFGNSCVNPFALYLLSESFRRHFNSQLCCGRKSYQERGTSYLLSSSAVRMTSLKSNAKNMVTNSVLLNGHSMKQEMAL

`COc1ccc(C2(CNC(=O)[C@](C)(Cc3c[nH]c4ccccc34)NC(=O)Nc3ccc([N+](=O)[O-])cc3)CCCCC2)nc1` [PD176252]: the “Effect of reference antagonist alone on basal receptor activity (IP1)” value at human BB1 receptor (reference compound 10 μM alone (Figure 7A)) and on human BB2 receptor (reference compound 10 μM alone (Figure 7B)) was “inhibited the basal activity” throughout. The “Effect of reference antagonist on IP1 concentration in the presence of agonist” value on human BB1 receptor (reference compound 10 μM with BN 150 nM (Figure 7A)) is reported as “downregulated IP1 concentration to control level”; on human BB2 receptor (reference compound 10 μM with BN 150 nM (Figure 7B)), “significantly reduced its level”.

As to “Asn-Gln-Ala-Ala-Val-Gly-His-Leu-Met-NH2 (NQAAVGHLM-NH2) [[Ala^3]BN^6–14]”, the “Agonist effect of compound alone on intracellular IP1” value in the test with human BB1 receptor (compound alone 25 μM, 1 h, 37 °C (Figure 7A)) was “little change in the activity”; in the test with human BB2 receptor (compound alone 25 μM, 1 h, 37 °C (Figure 7B)) it was “little change in the activity”.

These data come from publication PMC8279479, “Application of Alanine Scanning to Determination of Amino Acids Essential for Peptide Adsorption at the Solid/Solution Interface and Binding to the Receptor: Surface-Enhanced Raman/Infrared Spectroscopy versus Bioactivity Assays” (Journal of Medicinal Chemistry, 2021).
